Columns and labels:
[1] = molecular target: T1, Full length wild-type cereblon CRBN (Homo sapiens, UniProt Q96SW2); assay: Fluorescence polarization (FP) assay indicating cereblon binding; conditions: CRBN 80.0 nM, fluorescent probe 5 nM, FP measured after 12 hours; read-out: rFP IC50
T1 construct: Full length wild-type cereblon CRBN (80.0 nM, 10 μL) was incubated in assay buffer
Text: Protocol for Fluorescent Polarization Assay
Compound activity was monitored in a fluorescence polarization (FP) homogeneous assay using 1-[5-({2-[2-(2-{[2-(2,6-dioxopiperidin-3-yl)-1,3-dioxo-2,3-dihydro-1H-isoindol-4-yl]oxy}acetamido)ethoxy]ethyl}carbamoyl)pentyl]-3,3-dimethyl-2-[(1E,3E)-5-[(2E)-1,3,3-trimethyl-5-sulfo-2,3-dihydro-1H-indol-2-ylidene]penta-1,3-dien-1-yl]-3H-indol-1-ium-5-sulfonate as a fluorescent probe. Unless otherwise stated, all reagents were purchased from Sigma Aldrich. Enzymatic reactions were conducted in Perkin-Elmer Black 384 well ProxiPlate Plus (catalogue no. 6008269) in 10 μL total volume. Full length wild-type cereblon CRBN (80.0 nM, 10 μL) was incubated in assay buffer containing 20 mM HEPES (pH 8.0), […], 0.5 mM TCEP and 0.05% Tween 20 in the presence or absence of compound (300 nL). Inhibitors were stored as 10 mM DMSO stocks in an inert environment (low humidity, dark, low oxygen, room temperature) using the Storage Pod System. Compounds and DMSO were dispensed using the Echo E5XX (Labcyte Inc. USA) to give concentrations from 300 to 0.937 or 3000 to 9.3 nM in a 12 data point curve. […] Following incubation at room temperature for […], the assay was initiated by dispensing the probe to a final concentration of 5 nM (2.5 nL of a 20 μM stock) using the Echo E5XX. FP was measured after a period of 12 hours using a Pherastar plate reader (BMG Labtech, Germany) exciting at 590 nm and measuring the amount of parallel and perpendicular light at 675 nm. The FP signal was subsequently normalized to the no-compound control (i.e., DMSO). Analysis and IC50 values were derived using Dotmatics (Dotmatics UK) software.

GSPT1 = GSPT1 (Homo sapiens, UniProt P15170+Q96SW2); assay: Immunofluorescence assay for GSPT1 degradation in CAL-51 cells; assay type: cell-based; design: CAL-51 cells were purchased from DSMZ (cat. Number ACC302); endogenous in cells; host or cells: CAL-51 (DSMZ ACC302); conditions: compound treatment 6 hours, read-out: Code: activity for GSPT1 degradation (DC50)
Sequence of GSPT1 (P15170 whole entry): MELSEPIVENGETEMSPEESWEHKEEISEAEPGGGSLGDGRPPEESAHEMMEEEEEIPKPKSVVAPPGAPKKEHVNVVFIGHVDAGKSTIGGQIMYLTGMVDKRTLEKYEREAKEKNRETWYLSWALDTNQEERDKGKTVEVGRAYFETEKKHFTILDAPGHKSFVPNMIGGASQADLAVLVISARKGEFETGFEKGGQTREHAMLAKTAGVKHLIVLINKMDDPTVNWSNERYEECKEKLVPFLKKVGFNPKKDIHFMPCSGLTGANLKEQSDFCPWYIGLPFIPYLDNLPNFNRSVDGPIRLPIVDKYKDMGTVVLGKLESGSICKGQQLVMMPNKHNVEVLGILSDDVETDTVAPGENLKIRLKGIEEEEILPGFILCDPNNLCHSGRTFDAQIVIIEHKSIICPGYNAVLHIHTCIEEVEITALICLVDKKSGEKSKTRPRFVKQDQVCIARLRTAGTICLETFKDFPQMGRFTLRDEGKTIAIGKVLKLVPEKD
Sequence of GSPT1 (Q96SW2 whole entry): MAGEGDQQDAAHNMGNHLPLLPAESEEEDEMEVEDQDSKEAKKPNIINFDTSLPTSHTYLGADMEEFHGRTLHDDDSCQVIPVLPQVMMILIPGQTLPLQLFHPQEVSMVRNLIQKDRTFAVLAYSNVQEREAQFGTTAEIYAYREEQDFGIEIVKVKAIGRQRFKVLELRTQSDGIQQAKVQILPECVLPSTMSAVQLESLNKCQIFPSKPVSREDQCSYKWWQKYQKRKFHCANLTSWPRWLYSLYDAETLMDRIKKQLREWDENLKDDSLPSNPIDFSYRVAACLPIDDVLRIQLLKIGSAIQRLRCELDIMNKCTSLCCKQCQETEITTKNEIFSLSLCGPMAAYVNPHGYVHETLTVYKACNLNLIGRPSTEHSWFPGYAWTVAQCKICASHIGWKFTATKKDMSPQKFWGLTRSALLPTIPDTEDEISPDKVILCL
Sequence of GSPT1 (Q16531 2-1140 partner limits assumed): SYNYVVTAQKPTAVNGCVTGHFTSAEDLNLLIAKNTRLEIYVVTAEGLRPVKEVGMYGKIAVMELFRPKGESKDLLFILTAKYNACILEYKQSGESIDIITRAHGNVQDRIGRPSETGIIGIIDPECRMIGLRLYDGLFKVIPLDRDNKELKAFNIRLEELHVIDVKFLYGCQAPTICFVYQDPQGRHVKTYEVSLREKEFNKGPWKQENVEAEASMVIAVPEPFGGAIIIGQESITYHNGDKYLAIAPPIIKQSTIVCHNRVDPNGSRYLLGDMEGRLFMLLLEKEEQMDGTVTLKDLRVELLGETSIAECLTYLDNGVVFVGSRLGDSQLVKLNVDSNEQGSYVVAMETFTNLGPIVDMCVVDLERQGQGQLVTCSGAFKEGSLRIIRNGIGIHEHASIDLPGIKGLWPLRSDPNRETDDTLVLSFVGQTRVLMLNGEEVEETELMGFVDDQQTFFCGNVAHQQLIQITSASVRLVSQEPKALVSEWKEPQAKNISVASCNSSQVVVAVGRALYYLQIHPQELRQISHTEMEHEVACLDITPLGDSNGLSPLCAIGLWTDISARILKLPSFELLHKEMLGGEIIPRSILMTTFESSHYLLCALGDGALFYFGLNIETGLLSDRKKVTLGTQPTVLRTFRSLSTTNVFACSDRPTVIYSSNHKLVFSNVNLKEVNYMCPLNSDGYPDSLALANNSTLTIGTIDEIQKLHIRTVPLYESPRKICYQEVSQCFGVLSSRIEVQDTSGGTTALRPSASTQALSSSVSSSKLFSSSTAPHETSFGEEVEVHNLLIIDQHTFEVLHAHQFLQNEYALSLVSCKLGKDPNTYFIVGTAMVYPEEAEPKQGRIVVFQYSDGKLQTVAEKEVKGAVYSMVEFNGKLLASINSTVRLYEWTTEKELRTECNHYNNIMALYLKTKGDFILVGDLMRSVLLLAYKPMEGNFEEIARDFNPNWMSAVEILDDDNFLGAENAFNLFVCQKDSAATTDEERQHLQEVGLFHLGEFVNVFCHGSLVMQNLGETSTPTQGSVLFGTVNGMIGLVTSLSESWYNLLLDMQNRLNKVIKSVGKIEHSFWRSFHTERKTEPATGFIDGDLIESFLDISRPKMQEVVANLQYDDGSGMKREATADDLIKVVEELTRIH
Protocol: CAL-51 cells were purchased from DSMZ (cat. Number ACC302), sub-cultured in 90% Dulbecco's MEM (4.5 g/L glucose, Gibco 11965) +10% heat inactivated FBS (BioConcept, 2-01F136I) and incubated at 37° C., 5% CO2. For the assay, imaging microtiterplate Cell Carrier 96 Ultra (Perkin Elmer 6055302) were pre-coated with Fibronectin (Sigma F085, 300 at 0.2 μg/ml) in PBS (1000, Gibco 14190) for 45 min at room temperature, rinsed with PBS and CAL-51 cells (30K cells/well) were plated and let to adhere overnight. Cells were treated with compounds typically using a serial dilution ranging from 30 μM to 0.1 nM for 6 hours. Compounds were stored at 10 mM DMSO stocks. Vehicle (DMSO), positive (CC-885, 10 μM) and rescue controls (positive control plus 0.2 μM bortezomib) were also included at this stage. Cells were subsequently rinsed with PBS and fixed in 10% Formalin solution (50 μl, Sigma HT5011)) for 20 mins at room temperature. Following three consecutive PBS washes (100 μl), cells were permeabilized in 0.1% Triton X-100 in PBS (Sigma 93443, 50 μl) for 15 mins at room temperature. Following three further PBS washes, 50 μl blocking buffer (1% BSA, Sigma A4503, in PBS) was added for 45 min for signal-to-noise reduction. Primary antibody (human GSPT1, Sigma HPA052488) was diluted in blocking buffer (dil. 1/300, 35 μl/well) and incubated with the cells overnight at 4° C. After three PBS washes, Alexa-fluor 488 coupled secondary antibodies (Invitrogen, A32731, dil. 1/1000), Alexa-fluor 647-Phalloïdin (Invitrogen, A22287, dil. 1/200) and DAPI (Thermo, #62248, dil.1/1000) were diluted in blocking buffer and incubated with the samples for 2 hours at room temperature. After three final PBS washes, samples were conserved in 1000 PBS in the dark, until measurement. Image acquisition was performed on the Operetta High-Content Imager (Perkin-Elmer). Fluorescence intensity of Alexa-Fluor 488 (GSPT1), Alexa-Fluor 647 (Actin) and DAPI (Nucleus) were measured. For the determination of GSPT1 DC50 values, a custom algorithm implemented in the PerkinElmer image analysis software Harmony-Acapella® was developed. After user-defined setting of adjustment parameters, the analysis was run identically without human intervention for all image fields. DAPI staining of the nuclei was used to determine the location of cells using standard nuclei detection modules. Segmentation artifacts were removed by threshold-based filters for area, roundness and intensity. The outline of the cells was determined analogously from the sum of the normalized, smoothed DAPI and Actin channel, starting from each nucleus. The Alexa-Fluor 488 (GSPT1) signal intensity in each cell was finally measured, in order to obtain a Mean intensity per cell. GSPT1 degradation (DC50) was calculated after normalization to controls and data import in CDD vault Database, using non-linear regression. Activity for GSPT1 Degradation Table 3 assigns each compound a code indicating the ability for GSPT1 degradation: A, B or C. According to the code, A represents a DC50 value of ≤100 nM, B represents a DC50 value >100 nM and ≤300 nM and C represents a DC50 value of >300 nM.

T1 sequence (Q96SW2 whole entry): as the sequence (Q96SW2 whole entry) above

Row | Structure (SMILES) | IC50 [1] | DC50 (GSPT1)
1 | O=C1CCC(N2Cc3ccc(CNC(=O)Nc4cc(Cl)cc(CN5CCOCC5)c4)cc3C2=O)C(=O)N1 (stereo not drawn) [Compound 119] | 0.408 µM | ≤ 0.1 µM
2 | Cc1c(Cl)cc(NC(=O)NCc2ccc3c(c2)C(=O)N(C2CCC(=O)NC2=O)C3)cc1CC(=O)O (stereo not drawn) [Compound 120] | 0.453 µM | > 0.3 µM
3 | O=C1CCC(N2Cc3ccc(CNC(=O)Nc4cccc(Oc5ccccn5)c4)cc3C2=O)C(=O)N1 (stereo not drawn) [Compound 121] | 0.243 µM | 0.1 to 0.3 µM
4 | Cc1c(Cl)cc(NC(=O)NCc2ccc3c(c2)C(=O)N(C2CCC(=O)NC2=O)C3)cc1N1CCOCC1 (stereo not drawn) [Compound 122] | 0.657 µM | ≤ 0.1 µM
5 | O=C1CCC(N2Cc3ccc(CNC(=O)Nc4ccccn4)cc3C2=O)C(=O)N1 (stereo not drawn) [Compound 123] | 0.57 µM | > 0.3 µM
6 | Cc1c(Cl)cc(NC(=O)NCc2ccc3c(c2)C(=O)N(C2CCC(=O)NC2=O)C3)cc1CN1CCN(C)CC1 (stereo not drawn) [Compound 124] | 0.198 µM | > 0.3 µM
7 | COCCOc1cc(NC(=O)NCc2ccc3c(c2)C(=O)N(C2CCC(=O)NC2=O)C3)cc(Cl)c1C (stereo not drawn) [Compound 125] | 0.596 µM | ≤ 0.1 µM
8 | Cc1c(Cl)cc(NC(=O)NCc2ccc3c(c2)C(=O)N(C2CCC(=O)NC2=O)C3)cc1CN1CCC(N2CCOCC2)CC1 (stereo not drawn) [Compound 126] | 0.193 µM | > 0.3 µM
9 | Cc1c(Cl)cc(NC(=O)NCc2ccc3c(c2)C(=O)N(C2CCC(=O)NC2=O)C3)cc1OCCN1CCOCC1 (stereo not drawn) [Compound 127] | 0.261 µM | ≤ 0.1 µM
10 | Cn1ccc(NC(=O)NCc2ccc3c(c2)C(=O)N(C2CCC(=O)NC2=O)C3)c1 (stereo not drawn) [Compound 128] | 0.302 µM | > 0.3 µM
11 | Cc1c(Cl)cc(NC(=O)NCc2ccc3c(c2)C(=O)N(C2CCC(=O)NC2=O)C3)cc1N(C)C (stereo not drawn) [Compound 129] | 0.35 µM | ≤ 0.1 µM
12 | CN1CCC(Oc2cccc(NC(=O)NCc3ccc4c(c3)C(=O)N(C3CCC(=O)NC3=O)C4)c2)CC1 (stereo not drawn) [Compound 130] | 0.358 µM | > 0.3 µM
13 | CC(C)(O)c1ccc(NC(=O)NCc2ccc3c(c2)C(=O)N(C2CCC(=O)NC2=O)C3)cc1 (stereo not drawn) [Compound 131] | 0.334 µM | > 0.3 µM
14 | Cc1c(Cl)cc(NC(=O)NCc2ccc3c(c2)C(=O)N(C2CCC(=O)NC2=O)C3)cc1CN1CCC(N(C)C)CC1 (stereo not drawn) [Compound 133] | 0.252 µM | > 0.3 µM
15 | Cc1c(Cl)cc(NC(=O)NCc2ccc3c(c2)C(=O)N(C2CCC(=O)NC2=O)C3)cc1OCCN(C)C (stereo not drawn) [Compound 134] | 0.394 µM | > 0.3 µM
16 | CC(C)(O)c1cccc(NC(=O)NCc2ccc3c(c2)C(=O)N(C2CCC(=O)NC2=O)C3)c1 (stereo not drawn) [Compound 135] | 0.477 µM | > 0.3 µM
17 | CN(C)CC(=O)Oc1cccc(NC(=O)NCc2ccc3c(c2)C(=O)N(C2CCC(=O)NC2=O)C3)c1 (stereo not drawn) [Compound 136] | 0.425 µM | > 0.3 µM
18 | Cc1ccc(NC(=O)NCc2ccc3c(c2)C(=O)N(C2CCC(=O)NC2=O)C3)nc1Cl (stereo not drawn) [Compound 137] | 1.14 µM | > 0.3 µM

Reference: US20220242846A1, “ISOINDOLINONE COMPOUNDS” (Monte Rosa Therapeutics AG, priority 2019, published 2022)
